# Source: article PMC3265452 (PLoS Neglected Tropical Diseases, 2012)
# Counter-ions that a name gives are not always drawn.
# Target: AaDOP2 (Aedes aegypti, UniProt H6D5H2)
# Test: AaDOP2 antagonist screen of the LOPAC1280 library (HEK-CRELuc-Aadop2 cells, luminescence)
# Type: cell-based
# Conditions: not given
# AaDOP2, sequence (H6D5H2 1-476): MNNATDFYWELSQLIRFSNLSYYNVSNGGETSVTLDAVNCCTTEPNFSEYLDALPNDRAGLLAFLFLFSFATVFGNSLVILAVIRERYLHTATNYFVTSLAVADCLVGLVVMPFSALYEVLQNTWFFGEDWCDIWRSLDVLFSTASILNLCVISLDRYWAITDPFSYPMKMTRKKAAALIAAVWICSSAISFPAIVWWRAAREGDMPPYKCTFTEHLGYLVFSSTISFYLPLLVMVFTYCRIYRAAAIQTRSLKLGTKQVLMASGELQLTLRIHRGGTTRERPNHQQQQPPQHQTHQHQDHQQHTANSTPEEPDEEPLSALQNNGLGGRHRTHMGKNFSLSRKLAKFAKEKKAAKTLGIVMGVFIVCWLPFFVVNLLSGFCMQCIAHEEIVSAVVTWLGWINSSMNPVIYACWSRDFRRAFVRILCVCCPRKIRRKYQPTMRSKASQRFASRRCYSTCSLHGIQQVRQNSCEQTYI
row,Compound,"Compound effect (percent receptor signaling in presence of test compound, relative lux units relative to the SCH23390 control)"
1,"CN1CCC[C@H]1c1cccnc1.O=C(O)C(O)C(O)C(=O)O.O=C(O)C(O)C(O)C(=O)O [Compound 857, (-)-Nicotine hydrogen tartrate salt]",92
2,"N=C(NCCC[C@H](N)C(=O)O)N[N+](=O)[O-] [Compound 858, NG-Nitro-L-arginine]",95
3,"c1ccc2c(CC3=NCCN3)cccc2c1 [Compound 859, Naphazoline hydrochloride]",90
4,"O=C(O)CC[N+](=O)[O-] [Compound 860, 3-Nitropropionic acid]",91
5,"CNCCC=C1c2ccccc2CCc2ccccc21 [Compound 863, Nortriptyline hydrochloride]",4
6,"COC(=O)C1=C(C)NC(C)=C(C(=O)OCCN(C)Cc2ccccc2)C1c1cccc([N+](=O)[O-])c1 (stereo not drawn) [Compound 865, Nicardipine hydrochloride]",76
7,"COC(=O)C1=C(C)NC(C)=C(C(=O)OC)C1c1ccccc1[N+](=O)[O-] [Compound 866, Nifedipine]",78
8,"C=CCN1CC[C@]23c4c5ccc(O)c4O[C@H]2C(=O)CC[C@@]3(O)[C@H]1C5 [Compound 867, Naloxone hydrochloride]",75
9,"O=[N+]([O-])c1cccc2cn[nH]c12 [Compound 868, 7-Nitroindazole]",78
10,"C[N+](C)(C)CCC(=O)c1cccc2ccccc12.[I-] [Compound 870, 2-(alpha-Naphthoyl)ethyltrimethylammonium iodide]",74
11,"CC1(C)NC(=O)N(c2ccc([N+](=O)[O-])c(C(F)(F)F)c2)C1=O [Compound 872, Nilutamide]",93
12,"O=C(Nc1cccc(C(=O)Nc2ccc(S(=O)(=O)O)c3cc(S(=O)(=O)O)cc(S(=O)(=O)O)c23)c1)Nc1cccc(C(=O)Nc2ccc(S(=O)(=O)O)c3cc(S(=O)(=O)O)cc(S(=O)(=O)O)c23)c1 [Compound 873, NF 023]",94
13,"Cc1ncc(CNC(=O)N(CCCl)N=O)c(N)n1 [Compound 874, Nimustine hydrochloride]",88
14,"O=C1OC(=O)[C@H]2[C@@H]1[C@@H]1CC[C@H]2O1 [Compound 875, Norcantharidin]",76
15,"COc1ccc2c(c1OC)C(=O)O[C@@H]2[C@H]1c2c(cc3c(c2OC)OCO3)CCN1C.Cl [Compound 876, Noscapine hydrchloride]",78
16,"CN1CCCC1c1cccnc1.Cc1ccc(C(=O)OC(C(=O)O)C(OC(=O)c2ccc(C)cc2)C(=O)O)cc1 (stereo not drawn) [Compound 877, (+)-Nicotine (+)-di-p-toluoyl tartrate]",80
17,"Oc1ccc2c3c1O[C@H]1c4[nH]c5ccccc5c4C[C@@]4(O)[C@@H](C2)N(CC2CC2)CC[C@]314 [Compound 878, Naltrindole hydrochloride]",81

row,Compound,"Compound effect (percent receptor signaling in presence of test compound, relative lux units relative to the SCH23390 control)"
1,"CCOC(=O)C1=C(C)NC(C)=C(C(=O)OC)C1c1cccc([N+](=O)[O-])c1 (stereo not drawn) [Compound 881, Nitrendipine]",103
2,"COCCOC(=O)C1=C(C)NC(C)=C(C(=O)OC(C)C)C1c1cccc([N+](=O)[O-])c1 (stereo not drawn) [Compound 882, Nimodipine]",102
3,"CNCCC(Oc1ccccc1OC)c1ccccc1 (stereo not drawn) [Compound 883, Nisoxetine hydrochloride]",84
4,"CC(CCc1ccccc1)NC(C)C(O)c1ccc(O)cc1 (stereo not drawn) [Compound 884, Nylidrin hydrochloride]",86
5,"Cn1cnc2c(NC3CCCC3)ncnc21 [Compound 885, N6-Cyclopentyl-9-methyladenine]",105
6,"Oc1ccc2c3c1O[C@H]1c4oc5ccccc5c4C[C@@]4(O)[C@@H](C2)N(CC2CC2)CC[C@]314 [Compound 886, Naltriben methanesulfonate]",102
7,"O=C(O)CCCCCCC1C(=O)NC(=O)N1CCC(O)C1CCCCC1 (stereo not drawn) [Compound 888, BW 245C]",120
8,"C=CCN1CC[C@]23c4c5ccc(O)c4O[C@H]2/C(=N/NC(=O)c2ccccc2)CC[C@@]3(O)[C@H]1C5 [Compound 889, Naloxone benzoylhydrazone]",101
9,"O=c1[nH]c2cc(C(F)(F)F)ccc2n1-c1cc(C(F)(F)F)ccc1O [Compound 890, NS-1619]",86
10,"C=CCN1CC[C@]23c4c5ccc(O)c4O[C@@H]2/C(=N/N=C2\CC[C@@]4(O)C6Cc7ccc(O)c8c7[C@@]4(CCN6CC=C)[C@@H]2O8)CC[C@@]3(O)C1C5.Cl.Cl [Compound 891, Naloxonazine dihydrochloride]",86
11,"O=c1onc2n1-c1cc(Br)ccc1OC2 [Compound 893, NS 2028]",98
12,"CCn1cc(C(=O)O)c(=O)c2cc3c(cc21)OCO3 [Compound 896, Oxolinic acid]",108
13,"Cn1cnc2c(NCc3ccccc3)nc(NCCO)nc21 [Compound 897, Olomoucine]",47
14,"CCCCCCCC/C=C\CCCCCCCC(=O)O [Compound 898, Oleic Acid]",95
15,"Cc1cc(C(C)(C)C)c(O)c(C)c1CC1=NCCN1 [Compound 899, Oxymetazoline hydrochloride]",84
16,"NC(=O)C(=O)O [Compound 900, Sodium Oxamate]",91
17,"CCN(CC)CC#CCOC(=O)C(O)(c1ccccc1)C1CCCCC1 (stereo not drawn) [Compound 901, Oxybutynin Chloride]",83

# Same assay, conditions: 10 µM compound, 300 nM dopamine, 2 hr; hit = compound effect <20
row,Compound,"Compound effect (percent receptor signaling in presence of test compound, relative lux units relative to the SCH23390 control) [%]"
1,"O=C(Nc1cc(C(=O)Nc2ccc(S(=O)(=O)[O-])cc2S(=O)(=O)[O-])cc(C(=O)Nc2ccc(S(=O)(=O)[O-])cc2S(=O)(=O)[O-])c1)Nc1cc(C(=O)Nc2ccc(S(=O)(=O)[O-])cc2S(=O)(=O)[O-])cc(C(=O)Nc2ccc(S(=O)(=O)[O-])cc2S(=O)(=O)[O-])c1.[Na+].[Na+].[Na+].[Na+].[Na+].[Na+].[Na+].[Na+] [Compound 855, NF449 octasodium salt]",112
2,"CC(Cc1ccc(O)c(O)c1)C(C)Cc1ccc(O)c(O)c1 (stereo not drawn) [Compound 856, Nordihydroguaiaretic acid from Larrea divaricata (creosote bush)]",64
3,"COC(=O)[C@@H](N)CCCN=C(N)N[N+](=O)[O-].Cl [Compound 861, NG-Nitro-L-arginine methyl ester hydrochloride]",96
4,"NC(=O)C1=CN([C@@H]2O[C@H](COP(=O)(O)OP(=O)(O)OC[C@H]3O[C@@H](n4cnc5c(N)ncnc54)[C@H](OP(=O)(O)O)[C@@H]3O)[C@@H](O)[C@H]2O)C=CC1 [Compound 864, NADPH tetrasodium]",92
5,"O=Nc1ccc2oc(=O)ccc2c1 [Compound 871, 6-Nitroso-1,2-benzopyrone]",93
6,"Cl.O=C(CCCN1CCC2(CC1)C(=O)N(CCc1ccc(N=C=S)cc1)CN2c1ccccc1)c1ccc(F)cc1 [Compound 879, N-(p-Isothiocyanatophenethyl)spiperone hydrochloride]",83
7,"Cl.O=C(O)C1=CCCN(CCON=C(c2ccccc2)c2ccccc2)C1 [Compound 880, NO-711 hydrochloride]",81
8,"COc1ccccc1N1CCN(CC(O)COc2cccc3ccccc23)CC1.Cl.Cl (stereo not drawn) [Compound 887, Naftopidil dihydrochloride]",79
9,"NS(=O)(=O)c1cccc2c1c([N+](=O)[O-])cc1nc([O-])c([O-])nc12.[Na+].[Na+] [Compound 892, NBQX disodium]",95
10,"CCCCCCCC/C=C\CCCCCCCC(=O)NCCO [Compound 895, N-Oleoylethanolamine]",105

# Same assay, conditions: read-out: % of the SCH23390 effect (percent inhibition of receptor response relative to the SCH23390 control)
row,Compound,inhibition at 10 µM [%]
1,"CNCCC=C1c2ccccc2CCc2ccccc21 [Compound 863, Nortriptyline hydrochloride]",96
